Test results: patent US20170217976A1, “6-(AMINO ACID)-MORPHINAN DERIVATIVES IN COMBINATION WITH PERMEATION […] FOR USE AS AN ORALLY, […], TRA[…] NASALLY AD[…]” (C[…], priority 2014, published 2017)
Like-named read-outs stand apart in the source and are kept apart here.

Columns and labels:
MOR = target: T1, MOR (Rattus norvegicus, UniProt P33535); experiment: Opioid receptor binding, MOR, rat brain membranes
T1 construct: from tissue

DOR = target: T2, DOR (Rattus norvegicus, UniProt P33533); experiment: Opioid receptor binding, DOR, rat brain membranes
T2 construct: from tissue
T2 sequence (P33533 whole entry): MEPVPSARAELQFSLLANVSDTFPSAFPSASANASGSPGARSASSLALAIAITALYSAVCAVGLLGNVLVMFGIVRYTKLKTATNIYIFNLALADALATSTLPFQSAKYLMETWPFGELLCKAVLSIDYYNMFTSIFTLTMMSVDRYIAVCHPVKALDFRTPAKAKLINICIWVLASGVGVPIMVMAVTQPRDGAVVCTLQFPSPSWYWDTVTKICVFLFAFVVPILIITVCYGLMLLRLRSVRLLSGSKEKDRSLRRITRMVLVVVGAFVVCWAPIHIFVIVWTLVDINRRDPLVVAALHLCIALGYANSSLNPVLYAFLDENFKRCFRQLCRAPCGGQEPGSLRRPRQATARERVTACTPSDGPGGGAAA

KOR = target: T3, KOR (Cavia porcellus, UniProt P41144); experiment: Opioid receptor binding, KOR, guinea pig brain membranes
T3 construct: from tissue
T3 sequence (P41144 whole entry): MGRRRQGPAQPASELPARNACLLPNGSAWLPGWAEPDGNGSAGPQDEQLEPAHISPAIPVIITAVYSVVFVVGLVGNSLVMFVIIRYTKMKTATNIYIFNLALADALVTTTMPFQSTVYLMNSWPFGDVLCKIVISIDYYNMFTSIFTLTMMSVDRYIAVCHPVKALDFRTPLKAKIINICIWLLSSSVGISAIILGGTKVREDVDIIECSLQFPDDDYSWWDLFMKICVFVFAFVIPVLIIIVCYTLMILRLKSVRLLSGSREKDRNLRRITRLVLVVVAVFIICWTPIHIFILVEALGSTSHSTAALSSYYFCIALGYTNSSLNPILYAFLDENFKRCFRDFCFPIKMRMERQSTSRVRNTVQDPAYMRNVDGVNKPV

[1] = Binding Ki (nM) MOR, in vitro binding assay, rat brain membranes
[2] = Binding Ki (nM) DOR, in vitro binding assay, rat brain membranes
[3] = Binding Ki (nM) KOR, in vitro binding assay, guinea pig brain membranes
[4] = Binding Ki MOR, Table 2-6, rat brain membranes
[5] = Binding Ki DOR, Table 2-6, rat brain membranes
[6] = Binding Ki KOR, Table 2-6, guinea pig brain membranes
[7] = Binding Ki MOR, Table 1-4, rat brain membranes
[8] = Binding Ki DOR, Table 1-4, rat brain membranes
[9] = Binding Ki KOR, Table 1-4, guinea pig brain membranes
[10] = in vitro binding assay, rat brain membranes, read-out: Binding Ki (nM) MOR
[11] = in vitro binding assay, rat brain membranes, read-out: Binding Ki (nM) DOR
[12] = in vitro binding assay, guinea pig brain membranes, read-out: Binding Ki (nM) KOR

T1 sequence (P33535 whole entry): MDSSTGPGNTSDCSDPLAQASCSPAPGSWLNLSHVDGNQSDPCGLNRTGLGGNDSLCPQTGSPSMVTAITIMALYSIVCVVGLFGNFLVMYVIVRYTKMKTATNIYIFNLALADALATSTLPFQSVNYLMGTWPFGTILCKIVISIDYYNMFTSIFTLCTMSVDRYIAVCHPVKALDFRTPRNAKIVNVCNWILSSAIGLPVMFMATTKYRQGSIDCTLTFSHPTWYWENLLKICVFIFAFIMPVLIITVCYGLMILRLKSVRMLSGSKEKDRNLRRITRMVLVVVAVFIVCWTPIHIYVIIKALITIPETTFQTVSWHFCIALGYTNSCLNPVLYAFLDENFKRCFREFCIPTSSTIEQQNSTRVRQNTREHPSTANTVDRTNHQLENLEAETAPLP

Which Ki (MOR; [1]) does the source give for `CCO[C@@]12CC[C@H](NCC(=O)OC(C)(C)C)[C@@H]3Oc4c(O)ccc5c4[C@@]31CCN(C)[C@@H]2C5` [5-t-Bu ester] here?
Its Ki is 0.2 nM.

And the Ki (DOR; [2])?
The Ki was 0.31 nM.

And the Ki (KOR; [3])?
The Ki was 15 nM.

`CN1CC[C@]23c4c5ccc(O)c4O[C@H]2[C@H](N[C@@H](Cc2ccccc2)C(=O)O)CC[C@@]3(O)[C@H]1C5` [Compound 12] was tested. Which Ki (MOR; Table 1-4, rat brain membranes, read-out: Binding Ki MOR) did it give?
The Ki was 6.91 nM.

And the Ki (DOR; Table 1-4, rat brain membranes, read-out: Binding Ki DOR)?
Its Ki is 8.29 nM.

And the Ki (KOR; Table 1-4, guinea pig brain membranes, read-out: Binding Ki KOR)?
The Ki was 634 nM.

What does the source list for `COC12CCC(NC(C(=O)O)C(C)C)C3Oc4c(O)ccc5c4C31CCN(CC1CC1)C2C5` (single isomer, unassigned) [Compound 71]?
Ki (MOR; Binding Ki MOR, Table 1-6, rat brain membranes): 1.52 nM; Ki (MOR; [4]): 1.52 nM; Ki (DOR; Binding Ki DOR, Table 1-6, rat brain membranes): 0.35 nM; Ki (DOR; [5]): 0.35 nM; Ki (KOR; Binding Ki KOR, Table 1-6, guinea pig brain membranes): 23 nM; Ki (KOR; [6]): 23 nM

For `CCO[C@@]12CC[C@H](N[C@@H](Cc3ccccc3)C(=O)O)[C@@H]3Oc4c(O)ccc5c4[C@@]31CCN(CC1CC1)[C@@H]2C5` [Compound 55], which Ki (MOR; [4]) is on record?
Its Ki is 0.35 nM.

And the Ki (DOR; [5])?
The Ki was 0.7 nM.

And the Ki (KOR; [6])?
The Ki was 2.6 nM.

Which Ki (MOR; [1]) does the source give for `CO[C@@]12CC[C@H](N[C@H](C(=O)O)[C@@H](C)O)[C@@H]3Oc4c(O)ccc5c4[C@@]31CCN(C)[C@@H]2C5` [Compound 34] here?
The Ki was 1.03 nM.

And the Ki (MOR; [7])?
The Ki was 1.03 nM.

What about the Ki (DOR; [2]) of the same compound?
The Ki was 4.13 nM.

And the Ki (DOR; [8])?
The Ki was 4.13 nM.

And the Ki (KOR; [3])?
Its Ki is 120 nM.

And the Ki (KOR; [9])?
Its Ki is 120 nM.

What does the source list for `CCOC(=O)CN[C@H]1CC[C@@]2(OC)[C@H]3Cc4ccc(O)c5c4[C@@]2(CCN3C)[C@H]1O5` [HS730-Et ester]?
Ki (MOR; [1]): 0.28 nM; Ki (DOR; [2]): 0.96 nM; Ki (KOR; [3]): 8.57 nM

`CO[C@@]12CC[C@@H](N[C@@H](CC(C)C)C(=O)O)[C@@H]3Oc4c(O)ccc5c4[C@@]31CCN(C)[C@@H]2C5` [Compound 41] was tested. Which Ki (MOR; [1]) did it give?
The Ki was 1.32 nM.

And the Ki (MOR; [7])?
Its Ki is 1.32 nM.

And the Ki (DOR; [2])?
Its Ki is 1.01 nM.

What about the Ki (DOR; [8]) of the same compound?
Its Ki is 1.01 nM.

What about the Ki (KOR; [3]) of the same compound?
Its Ki is 297 nM.

And the Ki (KOR; [9])?
Its Ki is 297 nM.

How did the Ki (MOR; [1]) turn out when `CO[C@@]12CC[C@H](N[C@@H](CCC(N)=O)C(=O)O)[C@@H]3Oc4c(O)ccc5c4[C@@]31CCN(C)[C@@H]2C5` [Compound 17] was run?
Its Ki is 3.24 nM.

And the Ki (MOR; [7])?
Its Ki is 3.24 nM.

And the Ki (DOR; [2])?
Its Ki is 5.13 nM.

And the Ki (DOR; [8])?
Its Ki is 5.13 nM.

And the Ki (KOR; [3])?
The Ki was 351 nM.

What about the Ki (KOR; [9]) of the same compound?
Its Ki is 351 nM.

For `CO[C@@]12CC[C@@H](N[C@@H](CC(C)C)C(=O)OC(C)(C)C)[C@@H]3Oc4c(O)ccc5c4[C@@]31CCN(CC1CC1)[C@@H]2C5` [77-tBu ester], which Ki (MOR; [4]) is on record?
Its Ki is 0.13 nM.

And the Ki (DOR; [5])?
The Ki was 0.094 nM.

And the Ki (KOR; [6])?
The Ki was 0.68 nM.

What does the source list for `COC12CCC(NC(C(=O)O)C(C)C)C3Oc4c(O)ccc5c4C31CCN(C)C2C5` (single isomer, unassigned) [Compound 29]?
Ki (MOR; [1]): 3.04 nM; Ki (MOR; [7]): 3.04 nM; Ki (DOR; [2]): 3.52 nM; Ki (DOR; [8]): 3.52 nM; Ki (KOR; [3]): 305 nM; Ki (KOR; [9]): 305 nM

Which results are given for `CCC(C)C(NC1CCC2(OC)C3Cc4ccc(O)c5c4C2(CCN3C)C1O5)C(=O)OC(C)(C)C` (single isomer, unassigned) [42-t-Bu ester]?
Ki (MOR; [1]): 1.04 nM; Ki (DOR; [2]): 1 nM; Ki (KOR; [3]): 29.2 nM

With `CO[C@@]12CC[C@@H](N[C@@H](Cc3ccc(O)cc3)C(=O)OC(C)(C)C)[C@@H]3Oc4c(O)ccc5c4[C@@]31CCN(C)[C@@H]2C5` [10-t-Bu ester] as the compound, how does the Ki (MOR; [10]) read?
Its Ki is 1.53 nM.

What about the Ki (DOR; [11]) of the same compound?
The Ki was 1.88 nM.

And the Ki (KOR; [12])?
The Ki was 184 nM.

Which results are given for `CC[C@H](C)[C@H](N[C@@H]1CC[C@@]2(OC)[C@H]3Cc4ccc(O)c5c4[C@@]2(CCN3CC2CC2)[C@H]1O5)C(=O)O` [Compound 78]?
Ki (MOR; [4]): 1.62 nM; Ki (DOR; [5]): 1.44 nM; Ki (KOR; [6]): 9.49 nM

What does the source list for `CO[C@@]12CC[C@@H](NCCC(=O)OC(C)(C)C)[C@@H]3Oc4c(O)ccc5c4[C@@]31CCN(CC1CC1)[C@@H]2C5` [64-tBu ester]?
Ki (MOR; [4]): 1.52 nM; Ki (DOR; [5]): 0.91 nM; Ki (KOR; [6]): 2.13 nM

What does the source list for `CCCCCCCCOC(=O)CN[C@H]1CC[C@@]2(OC)[C@H]3Cc4ccc(O)c5c4[C@@]2(CCN3C)[C@H]1O5` [HS730-nOc ester]?
Ki (MOR; [10]): 1.29 nM; Ki (DOR; [11]): 3.23 nM; Ki (KOR; [12]): 2.97 nM

What does the source list for `CO[C@@]12CC[C@@H](NCC(=O)NCC(=O)O)[C@@H]3Oc4c(O)ccc5c4[C@@]31CCN(C)[C@@H]2C5` [Compound 25]?
Ki (MOR; [7]): 4.62 nM; Ki (DOR; [8]): 7.52 nM; Ki (KOR; [9]): 203 nM

`CO[C@@]12CC[C@@H](N[C@@H](Cc3ccccc3)C(=O)O)[C@@H]3Oc4c(O)ccc5c4[C@@]31CCN(CC1CC1)[C@@H]2C5` [Compound 58] was tested. Which Ki (MOR; Table 2-6, rat brain membranes, read-out: Binding Ki MOR) did it give?
The Ki was 1.23 nM.

And the Ki (DOR; Table 2-6, rat brain membranes, read-out: Binding Ki DOR)?
Its Ki is 2.02 nM.

And the Ki (KOR; Table 2-6, guinea pig brain membranes, read-out: Binding Ki KOR)?
The Ki was 8.42 nM.

How did the Ki (MOR; [7]) turn out when `C[C@H](N[C@@H]1CC[C@@]2(O)[C@H]3Cc4ccc(O)c5c4[C@@]2(CCN3C)[C@H]1O5)C(=O)O` [Compound 14] was run?
The Ki was 11 nM.

What about the Ki (DOR; [8]) of the same compound?
The Ki was 78.7 nM.

What about the Ki (KOR; [9]) of the same compound?
The Ki was 542 nM.

For `CO[C@@]12CC[C@@H](N[C@@H](CCCCN)C(=O)OC(C)(C)C)[C@@H]3Oc4c(O)ccc5c4[C@@]31CCN(C)[C@@H]2C5` [39-t-Bu ester], which Ki (MOR; [10]) is on record?
Its Ki is 0.58 nM.

What about the Ki (DOR; [11]) of the same compound?
The Ki was 0.88 nM.

What about the Ki (KOR; [12]) of the same compound?
The Ki was 21.4 nM.
